Reference: patent US9206232B2, “Organic compounds and their uses” (Novartis AG, priority 2009, dated 2015)

Assays:
[1] = target: HCV NS3-4A serine protease (full-length NS3-4A protein) (Hepatitis C virus genotype 1a (isolate 1) (HCV), UniProt P26664); test: HCV NS3-4A protease assay; type: biochemical, HCV genotype 1a; settings: genotype 1a strain HCV-1, fluorogenic peptide substrate, read-out: Protease assay Ex. 12 IC50
Method: The inhibitory activity of certain compounds of Table A against HCV NS3-4A serine protease is determined in a homogenous assay using the full-length NS3-4A protein (genotype 1a, strain HCV-1) and a commercially available internally-quenched fluorogenic peptide substrate as described by Taliani, M., et al. 1996 Anal. Biochem. 240:60-67, which is incorporated by reference in its entirety.

[2] = tested on: HCV; settings: ribavirin alone; cited from earlier work

HCV NS3-4A serine protease (full-length NS3-4A protein), sequence (P26664 1027-1657): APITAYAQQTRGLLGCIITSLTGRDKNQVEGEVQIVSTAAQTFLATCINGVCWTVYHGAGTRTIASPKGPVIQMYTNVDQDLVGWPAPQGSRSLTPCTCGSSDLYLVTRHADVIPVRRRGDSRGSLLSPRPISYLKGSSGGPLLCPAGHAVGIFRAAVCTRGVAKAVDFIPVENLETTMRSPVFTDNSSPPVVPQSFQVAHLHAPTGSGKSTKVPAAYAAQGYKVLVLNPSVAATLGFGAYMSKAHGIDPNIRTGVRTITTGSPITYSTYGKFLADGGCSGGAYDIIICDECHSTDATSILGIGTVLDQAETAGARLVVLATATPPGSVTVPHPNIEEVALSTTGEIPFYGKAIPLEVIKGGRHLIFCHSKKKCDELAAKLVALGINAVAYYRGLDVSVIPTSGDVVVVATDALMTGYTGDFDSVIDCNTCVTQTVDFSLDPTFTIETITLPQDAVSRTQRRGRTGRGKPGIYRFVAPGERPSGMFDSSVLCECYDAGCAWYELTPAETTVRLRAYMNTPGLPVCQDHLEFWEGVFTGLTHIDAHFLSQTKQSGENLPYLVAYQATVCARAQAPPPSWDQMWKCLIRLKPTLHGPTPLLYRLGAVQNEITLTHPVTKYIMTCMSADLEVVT
HCV NS3-4A serine protease (full-length NS3-4A protein), sequence (P26664 1658-1711 partner): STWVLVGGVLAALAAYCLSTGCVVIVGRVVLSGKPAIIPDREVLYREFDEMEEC

Structure (SMILES)	IC50 [1]	effect on serum levels of HCV-RNA [2]	patients with serum amino transferase levels reduced to normal [2]
[2H]C([2H])([2H])C([2H])(N1CCCC[C@H]1C(=O)NC(C(=O)N[C@H](C(=O)N1C[C@]2(C[C@H]1C(=O)N[C@]1(C(=O)NS(=O)(=O)N3CCCC3)C[C@H]1C=C)C(C)(C)C21CCC1)C(C)(C)C)C1CCCCC1)C([2H])([2H])[2H] (some centres unmarked) [Compound 145]	5.9 nM		
C=C[C@@H]1C[C@]1(NC(=O)[C@@H]1C[C@@]2(CN1C(=O)[C@@H](NC(=O)[C@@H](NC(=O)[C@@H]1Cc3[nH]cnc3CN1)C(C)(C)C)C(C)(C)C)C(C)(C)C21CCC1)C(=O)NS(=O)(=O)N1CCCC1 [Example 29, (5R,8S)-7-[(2S)-2-{[(2S)-3,3-dimethyl-2-{[(6S)-4,5,6,7-tetrahydro-1H-imidazo[4,5-c]pyridin-6-ylcarbonyl]amino}butanoyl]amino}-3,3-dimethylbutanoyl]-10,10-dimethyl-N-{(1 R,2S)-1-[(pyrrolidin-1-ylsulfonyl)carbamoyl]-2-vinylcyclopropyl}-7-azadispiro[3.0.4.1]decane-8-carboxamide]	40 nM		
C=C[C@@H]1C[C@]1(NC(=O)[C@@H]1C[C@@]2(CN1C(=O)[C@@H](NC(=O)[C@@H](NC(=O)[C@@H]1CCCCN1C(C)C)C1CCCCC1)C1CCCC1)C(C)(C)C21CCC1)C(=O)NS(=O)(=O)N1CCCC1 [Example 66, (5R,8S)-7-[(2S)-2-{[(2S)-2-cyclohexyl-2-({[(2S)-1-isopropylpiperidin-2-yl]carbonyl}amino)acetyl]amino}-2-cyclopentylacetyl]-10,10-dimethyl-N-{(1R,2S)-1-[(pyrrolidin-1-ylsulfonyl)carbamoyl]-2-vinylcyclopropyl}-7-azadispiro[3.0.4.1]decane-8-carboxamide]	5.5 nM		
NC(=O)c1ncn([C@@H]2O[C@H](CO)[C@@H](O)[C@H]2O)n1 [Ribavirin, ribavirin]		does not lower serum levels of HCV-RNA	40 % of patients
